Experimental data taken from patent US6814967B2, “Antibodies to cortistatin: neuropeptides, compositions and methods” (The Scripps Research Institute, priority 1996, dated 2004).

Legend:
[1] = system: somatostatin receptors on GH4 pituitary cells; assay: Displacement of 125I-somatostatin-14 bound to GH4 pituitary cells; format: binding; conditions: for Kd: GH4 pituitary cells, four independent experiments, read-out: estimated Kd, displacement of 125I-somatostatin-14 binding; for displacement of 125I-somatostatin: GH4 cells, control peptides
Procedure: To determine the binding specificity of cortistatin and in view of its similarity to somatostatin, assays to assess the binding of chemically synthesized, linear cortistatin-14 peptide prepared in Example 2 to somatostatin receptors on GH4 pituitary cells were performed.
GH4 cells, obtained from Dr. Kaare M. Gautvik (University of Oslo) or ATCC, were grown in MEM medium with 12% fetal calf serum in 6-well plates at 10^6 cells/ml. Each well then received 10^6 cpm/ml of ^125I somatostatin-14 (NEN, DuPont, Wilmington, Del.) alone or with increasing concentrations of somatostatin-14 peptide (Sigma) or cortistatin-14 peptide (95%, purified by reverse phase HPLC ranging from 10^−10 M to 10^−6 M. Aprotinin and leupeptin (Sigma; […]) was included as it reduced non-specific binding to 20% of total bound radioactivity. The binding of ^125I somatostatin in the presence of 10^−7 M somatostatin was considered as unspecific binding as described by Schonbrunn et al., J. Biol. Chem., 235:6473-6483 (1978).

[2] = target: somatostatin receptor 1 (SSTR1) (Homo sapiens, UniProt P30872); assay: Binding studies to cloned somatostatin receptors
somatostatin receptor 1 (SSTR1), sequence (P30872 whole entry, species assumed): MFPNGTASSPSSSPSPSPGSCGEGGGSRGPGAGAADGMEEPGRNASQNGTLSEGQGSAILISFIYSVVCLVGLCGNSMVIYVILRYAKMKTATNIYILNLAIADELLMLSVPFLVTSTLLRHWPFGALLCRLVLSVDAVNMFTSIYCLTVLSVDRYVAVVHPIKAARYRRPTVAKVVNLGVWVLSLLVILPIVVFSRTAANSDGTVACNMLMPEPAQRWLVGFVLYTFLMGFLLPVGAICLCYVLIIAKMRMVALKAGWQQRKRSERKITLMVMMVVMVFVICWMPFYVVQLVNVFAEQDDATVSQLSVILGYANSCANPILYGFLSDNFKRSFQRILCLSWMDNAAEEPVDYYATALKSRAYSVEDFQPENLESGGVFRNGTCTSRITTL

[3] = system: endogenous somatostatin receptors expressed by GH4 cells; assay: cAMP assay in GH4 cells stimulated with VIP or TRH; format: cell-based
Procedure: To investigate whether cortistatin modulates somatostatin receptor activation, the concentration of cyclic AMP (cAMP) was determined following stimulation of GH4 cells with VIP or TRH in the presence or absence of either cortistatin or somatostatin.
For the cAMP assays, GH4 cells were grown under the same conditions as for the binding assays. The cells were washed with MEM without serum, but containing leupeptin, aprotinin and 1 mM 3-isobutyl-methyl-xantine (IBMX). The cells were pretreated with somatostatin-14 and cortistatin-14 for 15 minutes before VIP at 10^−6 M was added or TRH at 10^−7 M. To each well, ^3H cyclic AMP was added before the content was removed, to calculate recovery. For cAMP measurements, a RIA kit (Amersham, Arlington Heights, Ill.) was used according to the instructions of the manufacturer. Each time point represents 2-4 replicates and the experiments were carried out twice.

[4] = system: hippocampal CA1 pyramidal cells; assay: Current-clamp intracellular recording in hippocampal slices; format: cell-based, rat; conditions: for time to maximum steady effect (time-to-peak) after onset of the response: hippocampal slice CA1 neurons, superfusion
Procedure: Somatostatin is known to hyperpolarize central neurons by increasing potassium conductances as described by Inoue et al., J. Physiol., 407:177-198 (1988), including the voltage-dependent potassium M current (see Moore et al., Science, 239:278-280 (1988) and Jacquin et al., Proc. Natl. Acad. Sci., USA, 85:948-952 (1988)). To complete the characterization of the physiological role of cortistatin, assays were performed to determine whether cortistatin had somatostatin-like effects on hippocampal neurons by means of current- and voltage-clamp recordings in the hippocampal slice preparation.
Intracellular recordings were obtained in rat hippocampal slices using sharp glass micropipettes as previously described by Schweitzer et al., J. Neurosci., 13:2033-2049 (1993). Recordings were made from 11 hippocampal CA1 pyramidal cells with an average resting membrane potential of −70 Å 1 mV (mean Å s.e.m.) and action potential of 103 Å 2 mV. Current-clamp recording of a CA1 neuron manually depolarized to −65 mV (resting membrane potential was −70 mV) to elicit action potential firing (upward deflections, truncated) is shown in FIG. 6A.
Superfusion of […] cortistatin-14 peptide (bar above record), prepared as described in Example 3, like somatostatin-14, hyperpolarized these neurons (10 of 11 cells), in association with inhibition of action potential firing, followed by recovery to control levels upon washout of the peptide. Unlike somatostatin, the cortistatin-14-mediated effect developed slowly, reaching a maximum steady effect six to eight minutes after the onset of the response. This contrasted with the time-to-peak of somatostatin′s effect on these neurons under the same experimental conditions that was much shorter (2-3 minutes).

hippocampal CA1 neurons = assay: Paired-pulse (PP) responses in CA1 neurons in vivo, iontophoretic application; design: species or system rat; conditions: for effect on PP responses (PP inhibition) in CA1: applied alone iontophoretically, ACh 0.9 M, somatostatin 1.5 mM, 80 ms interstimulus interval
Description: Stimulation intensity was adjusted after drug treatment to achieve control PS amplitudes before performing PP studies.

[5] = system: cerebral cortex (visual cortex) local EEG; assay: Local EEG activity in visual cortex of anesthetized rats, microiontophoretic application; format: in vivo, rat
Procedure: To investigate further whether cortistatin also interacts with cholinergic systems that regulate cortical function, the effects of cortistatin on ACh-induced desynchronization of EEG in the cerebral cortex of anesthetized rats was determined. Thus, ACh and cortistatin was microiontophoretically (100-250 nA) applied on local EEG activity recorded in the visual cortex. For the data shown in FIG. 7G, the results from the experimental groups were derived from averaged EEG spectral activity determinations and expressed as means Å s.e.m. (Asterisk represents significance levels P<0.05 from baseline; two asterisks represent significance levels P<0.05 from ACh; ANOVA).

CA1 pyramidal neurons = assay: Population spike amplitudes in CA1 in vivo, iontophoretic application, anesthetized rats; design: species or system rat; conditions: microiontophoretic application, 1 mg/ml in saline; half-maximal and maximal stimulation; P<0.05
Procedure: The inhibitory effects of cortistatin on the excitability of CA1 pyramidal neurons as viewed by population spike (PS) amplitudes was paralleled in vivo in the anesthetized preparation. For the in vivo studies, male Sprague-Dawley rats were anesthetized with halothane (0.9-1.1%). The commisural pathway was stimulated and elicited field potentials in the CA1 region essentially as described by Steffensen et al., Brain Res., 538:46-53 (1991). Cortistatin (1 mg/ml) was dissolved in saline and administered iontophoretically through one barrel of a multibarreled micropipette. […] Asterisks represent significance levels at P<0.05. The data was compiled with software (LabView Instruments, National Instruments, Austin, Tex.) as described by Steffensen et al., Brain Res., 538:46-53 (1991).
Stimulation of the monosynaptic afferent input to the CA1 region evoked a characteristic population spike (PS) that represents the synchronous firing of pyramidal cells, superimposed on a field synaptic potential waveform as described by Anderson et al., Exp. Brain Res., 13:208-221 (1971).

[6] = system: voltage-dependent potassium M current (IM); assay: Voltage-clamp recording of M current (IM) relaxation in CA1 neurons; format: cell-based, rat; design: dose or concentration left out as unconfirmed; conditions: 7 minutes superfusion; CA1 neuron held at −43 mV
Description: To determine the mechanism of the cortistatin-induced inhibition, we assessed the effect of cortistatin on the M current (IM), a non-inactivating voltage-dependent potassium current seen in hippocampal neurons as described by Halliwell et al., Brain Res., 250:71-92 (1982).
In voltage clamp assays, the IM relaxation was observed by applying hyperpolarizing steps (5 to 25 mV) from a holding potential of −43 to −48 mV.

[7] = system: sleep-wake cycle of the rat; assay: Intracerebroventricular administration, EEG and sleep-wake cycle of the rat; format: in vivo
Description: As cortistatin is expressed in interneurons located in the cerebral cortex and hippocampus, its effects on cortical measures of neuronal excitability was next determined in vivo. Up to 6 nmoles of HPLC-purified synthetic cortistatin-14 peptide prepared in Example 3 were infused into the brain ventricles of rats (n=5) and recorded the electroencephalogram (EEG) for four hours after peptide injection. […] Standard methodologies for chronic electrophysiological preparation and data acquisition were used. Procedures for EEG recordings and PP studies are as described by Prospero-Garcia et al., Pharmacol. Biochem. Behav., 49:413 (1994) and Steffensen et al., Brain Res., 652:149 (1994).
FIGS. 7A-1, 7A-2, 7A-3 and 7A-4 show the effects of the intracerebroventricular administration of cortistatin on the sleep-wake cycle of the rat. FIGS. 7A-1, 7A-2, 7A-3 and 7A-4 respectively illustrate wakefulness, slow-wave sleep 1, slow-wave sleep 2 and REM sleep. The effects of the sleep cycle were assessed with cortistatin-14 dosages at 100 ng, 500 ng, […] as plotted from left to right in the bar graphs as shown against saline control. Asterisks represent significance levels of P<0.05; ANOVA.

SSTR 2-5 = assay: Binding studies to cloned somatostatin receptors; conditions: relative to somatostatin
[8] = peptide alone at 10^−6 M, compared to control

14-residue peptide of SEQ ID NO 8 (PCKNFFWKTFSSCK), same sequence for rat and mouse, chemically synthesized [cortistatin-14]
Kd [1]: 5 nM | affinity for somatostatin receptor 1 (SSTR1) [2]: comparable to somatostatin | intracellular concentration of cAMP [3, 8]: no effect | time to maximum steady effect (time-to-peak) after onset of the response [4]: six to eight | effect on membrane potential of CA1 neurons ([4]; superfusion of 1 M, 10 of 11 cells, inhibition of action potential firing, recovery on washout): hyperpolarized | effect on PP responses (PP inhibition) in CA1 (hippocampal CA1 neurons): no significant effects | effect on the ACh-induced reduction of PP inhibition (hippocampal CA1 neurons; simultaneous iontophoretic application with ACh, P<0.05): completely antagonized | local EEG (averaged EEG power spectra) ([5]; applied alone, 100-250 nA, visual cortex, anesthetized rats): not different from baseline | effect of ACh on local EEG (increase in fast frequency activity) ([5]; simultaneous electrophoretic application with ACh): effectively prevented | population spike (PS) amplitudes (CA1 pyramidal neurons): significantly decreased | increase of the amplitude of the IM relaxation [6]: 60% | EEG cortical slow waves (1-4 Hz) ([7]; infused into brain ventricles of rats): dramatic increase | spontaneous behavior ([7]; infused into brain ventricles of rats, compared to saline-injected rats): clear hypoactive behavior | share of the four hour recording time in slow-wave sleep ([7]; intracerebroventricular, 40% in saline-treated control animals): up to 75% | paradoxical (REM) sleep ([7]; intracerebroventricular, highest dose): significant reduction | affinity for SSTR 2-5 (SSTR 2-5): far lesser affinity

C[C@H](N)C(=O)NCC(=O)N[C@H]1CSSC[C@@H](C(=O)O)NC(=O)[C@H](CO)NC(=O)[C@H]([C@@H](C)O)NC(=O)[C@H](Cc2ccccc2)NC(=O)[C@H]([C@@H](C)O)NC(=O)[C@H](CCCCN)NC(=O)[C@H](Cc2c[nH]c3ccccc23)NC(=O)[C@H](Cc2ccccc2)NC(=O)[C@H](Cc2ccccc2)NC(=O)[C@H](CC(N)=O)NC(=O)[C@H](CCCCN)NC1=O [somatostatin-14, reference compound]
Kd [1]: 5 nM | intracellular concentration of cAMP [3, 8]: no effect | time to maximum steady effect (time-to-peak) after onset of the response [4]: 2 to 3 min | effect on PP responses (PP inhibition) in CA1 (hippocampal CA1 neurons): markedly decreased PP inhibition

thryoid releasing hormone (QHP) [TRH, control peptide and cAMP stimulator (Calbiochem)]
displacement of 125I-somatostatin [1]: did not show any displacement | intracellular concentration of cAMP ([3]; peptide alone at 10^−7 M): increased

vasoactive intestinal peptide (HSDAVFTDNYTRLRKQMAVKKYLNSILN) [VIP, control peptide and cAMP stimulator (Bachem)]
displacement of 125I-somatostatin [1]: did not show any displacement | intracellular concentration of cAMP [3, 8]: increased
